Blank lines part the entries; values can stand above or below the molecule they belong to.
How the values were obtained:
HCT-116 [1] = assay: Cell cycle arrest in human HCT-116 cells assessed as accumulation at S phase at 5 uM measured after 24 hrs by propidium iodide staining based flow cytometry analysis (reference value: 39%); type: functional
HCT-116 [2] = assay: Induction of apoptosis in human HCT-116 cells assessed as viable cells at 5 uM incubated for 24 hrs by Annexin V-FITC and propidium iodide staining based flow cytometry analysis (reference value: 92.9 %); type: functional; conditions: read-out: Activity
MCF7 [3] = assay: Potency index, ratio of 5-FU IC50 to test compound IC50 for antiproliferative activity against human MCF7 cells by MTT assay; type: functional
HCT-116 [4] = assay: Cell cycle arrest in human HCT-116 cells assessed as accumulation at G0/G1 phase at 5 uM measured after 24 hrs by propidium iodide staining based flow cytometry analysis (reference value: 30.60 %); type: functional
HCT-116 [5] = assay: Cell cycle arrest in human HCT-116 cells assessed as accumulation at G0/G1 phase at 2.5 uM measured after 24 hrs by propidium iodide staining based flow cytometry analysis (reference value: 30.60 %); type: functional
HCT-116 [6] = assay: Antiproliferative activity against human HCT-116 cells assessed as reduction in cell viability by MTT assay; type: functional, cell-based
HCT-116 [7] = assay: Cell cycle arrest in human HCT-116 cells assessed as accumulation at G0/G1 phase at 10 uM measured after 24 hrs by propidium iodide staining based flow cytometry analysis (reference value: 30.60 %); type: functional
HCT-116 [8] = assay: Induction of apoptosis in human HCT-116 cells assessed as late apoptotic cells at 2.5 uM incubated for 24 hrs by Annexin V-FITC and propidium iodide staining based flow cytometry analysis (reference value: 0.899 %); type: functional
HCT-116 [9] = assay: Induction of apoptosis in human HCT-116 cells assessed as viable cells at 2.5 uM incubated for 24 hrs by Annexin V-FITC and propidium iodide staining based flow cytometry analysis (reference value: 92.9 %); type: functional; conditions: read-out: Activity
HCT-116 [10] = assay: Cell cycle arrest in human HCT-116 cells assessed as accumulation at S phase at 2.5 uM measured after 24 hrs by propidium iodide staining based flow cytometry analysis (reference value: 39%); type: functional
HT-29 [11] = assay: Antiproliferative activity against human HT-29 cells assessed as reduction in cell viability by MTT assay; type: functional, cell-based
HCT-116 [12] = assay: Potency index, ratio of 5-FU IC50 to test compound IC50 for antiproliferative activity against human HCT-116 cells by MTT assay; type: functional
MCF7 [13] = assay: Antiproliferative activity against human MCF7 cells assessed as reduction in cell viability by MTT assay; type: functional, cell-based
HCT-116 [14] = assay: Induction of apoptosis in human HCT-116 cells assessed as necrotic cells at 2.5 uM incubated for 24 hrs by Annexin V-FITC and propidium iodide staining based flow cytometry analysis (reference value: 0.019 %); type: functional
HCT-116 [15] = assay: Cell cycle arrest in human HCT-116 cells assessed as accumulation at G2M phase at 2.5 uM measured after 24 hrs by propidium iodide staining based flow cytometry analysis (reference value: 30.39 %); type: functional
HeLa [16] = assay: Potency index, ratio of 5-FU IC50 to test compound IC50 for antiproliferative activity against human HeLa cells by MTT assay; type: functional
HT-29 [17] = assay: Potency index, ratio of 5-FU IC50 to test compound IC50 for antiproliferative activity against human HT-29 cells by MTT assay; type: functional
HCT-116 [18] = assay: Induction of apoptosis in human HCT-116 cells assessed as early apoptotic cells at 10 uM incubated for 24 hrs by Annexin V-FITC and propidium iodide staining based flow cytometry analysis (reference value: 6.19 %); type: functional
HeLa [19] = assay: Antiproliferative activity against human HeLa cells assessed as reduction in cell viability by MTT assay; type: functional, cell-based
HCT-116 [20] = assay: Induction of apoptosis in human HCT-116 cells assessed as necrotic cells at 5 uM incubated for 24 hrs by Annexin V-FITC and propidium iodide staining based flow cytometry analysis (reference value: 0.019 %); type: functional
HCT-116 [21] = assay: Induction of apoptosis in human HCT-116 cells assessed as early apoptotic cells at 5 uM incubated for 24 hrs by Annexin V-FITC and propidium iodide staining based flow cytometry analysis (reference value: 6.19 %); type: functional
HCT-116 [22] = assay: Induction of apoptosis in human HCT-116 cells assessed as viable cells at 10 uM incubated for 24 hrs by Annexin V-FITC and propidium iodide staining based flow cytometry analysis (reference value: 92.9 %); type: functional; conditions: read-out: Activity
HCT-116 [23] = assay: Induction of apoptosis in human HCT-116 cells assessed as early apoptotic cells at 2.5 uM incubated for 24 hrs by Annexin V-FITC and propidium iodide staining based flow cytometry analysis (reference value: 6.19 %); type: functional
HCT-116 [24] = assay: Cell cycle arrest in human HCT-116 cells assessed as accumulation at S phase at 10 uM measured after 24 hrs by propidium iodide staining based flow cytometry analysis (reference value: 39%); type: functional
HCT-116 [25] = assay: Cell cycle arrest in human HCT-116 cells assessed as accumulation at G2M phase at 10 uM measured after 24 hrs by propidium iodide staining based flow cytometry analysis (reference value: 30.39 %); type: functional
HCT-116 [26] = assay: Induction of apoptosis in human HCT-116 cells assessed as necrotic cells at 10 uM incubated for 24 hrs by Annexin V-FITC and propidium iodide staining based flow cytometry analysis (reference value: 0.019 %); type: functional
HCT-116 [27] = assay: Induction of apoptosis in human HCT-116 cells assessed as late apoptotic cells at 5 uM incubated for 24 hrs by Annexin V-FITC and propidium iodide staining based flow cytometry analysis (reference value: 0.899 %); type: functional
HCT-116 [28] = assay: Induction of apoptosis in human HCT-116 cells assessed as late apoptotic cells at 10 uM incubated for 24 hrs by annexin V-FITC and propidium iodide staining based flow cytometry analysis (reference value: 0.899 %); type: functional
HCT-116 [29] = assay: Cell cycle arrest in human HCT-116 cells assessed as accumulation at G2M phase at 5 uM measured after 24 hrs by propidium iodide staining based flow cytometry analysis (reference value: 30.39 %); type: functional

SMILES: CCOC(=O)/C=N/c1cnc(Nc2ccc(N3CCOCC3)cc2)nc1NC1CCCC1
- Activity (HCT-116 [1]): 30.52%
- viability at 5 µM (HCT-116 [2]): 63.5%
- Ratio IC50 (MCF7 [3]): 2.1
- Activity (HCT-116 [4]): 36.46%
- Activity (HCT-116 [5]): 34.63%
- IC50 (HCT-116 [6]): 4.93 µM
- Activity (HCT-116 [7]): 41.55%
- Activity (HCT-116 [8]): 8.86%
- viability at 2.5 µM (HCT-116 [9]): 80.3%
- Activity (HCT-116 [10]): 37.77%
- IC50 (HT-29 [11]): 5.57 µM
- Ratio IC50 (HCT-116 [12]): 4.9
- IC50 (MCF7 [13]): 8.84 µM
- Activity (HCT-116 [14]): 0.195%
- Activity (HCT-116 [15]): 27.6%
- Ratio IC50 (HeLa [16]): 3
- Ratio IC50 (HT-29 [17]): 2.9
- Activity (HCT-116 [18]): 28%
- IC50 (HeLa [19]): 14.2 µM
- Activity (HCT-116 [20]): 0.62%
- Activity (HCT-116 [21]): 24.2%
- viability at 10 µM (HCT-116 [22]): 44.5%
- Activity (HCT-116 [23]): 10.6%
- Activity (HCT-116 [24]): 28.47%
- Activity (HCT-116 [25]): 29.98%
- Activity (HCT-116 [26]): 3.09%
- Activity (HCT-116 [27]): 11.7%
- Activity (HCT-116 [28]): 24.4%
- Activity (HCT-116 [29]): 33.02%

SMILES: NS(=O)(=O)c1ccc(Nc2ncc(/N=C/c3ccccc3)c(NC3CCCC3)n2)cc1
- IC50 (HCT-116 [6]): 26.1 µM
- IC50 (HT-29 [11]): 27 µM
- IC50 (MCF7 [13]): 39.1 µM
- IC50 (HeLa [19]): 15.6 µM

SMILES: CC(C)Nc1nc(Nc2ccc(S(N)(=O)=O)cc2)ncc1/N=C/c1ccccc1
- IC50 (HCT-116 [6]): > 100 µM
- IC50 (HT-29 [11]): 98.2 µM
- IC50 (MCF7 [13]): > 100 µM
- IC50 (HeLa [19]): > 100 µM

SMILES: CC(C)Nc1nc(Nc2ccc(S(N)(=O)=O)cc2)ncc1/N=C/c1cccs1
- IC50 (HCT-116 [6]): 82.1 µM
- IC50 (HT-29 [11]): > 100 µM
- IC50 (MCF7 [13]): 50.2 µM
- IC50 (HeLa [19]): > 100 µM

SMILES: CCOC(=O)/C=N/c1cnc(Nc2ccc(N3CCN(C)CC3)cc2)nc1NC1CCCC1
- IC50 (HCT-116 [6]): 17 µM
- IC50 (HT-29 [11]): 15.1 µM
- IC50 (MCF7 [13]): 42.3 µM
- IC50 (HeLa [19]): 18.9 µM

SMILES: CCOC(=O)/C=N/c1cnc(Nc2ccc(N3CCN(C)CC3)cc2)nc1NC(C)C
- IC50 (HCT-116 [6]): 13.6 µM
- IC50 (HT-29 [11]): 7.59 µM
- IC50 (MCF7 [13]): 12.3 µM
- IC50 (HeLa [19]): 11.5 µM

SMILES: CC(C)Nc1nc(Nc2ccc(N3CCOCC3)cc2)ncc1/N=C/c1cccs1
- IC50 (HCT-116 [6]): 14.8 µM
- IC50 (HT-29 [11]): 25.3 µM
- IC50 (MCF7 [13]): > 100 µM
- IC50 (HeLa [19]): > 100 µM

SMILES: CN1CCN(c2ccc(Nc3ncc(/N=C/c4cccs4)c(NC4CCCC4)n3)cc2)CC1
- IC50 (HCT-116 [6]): 18.9 µM
- IC50 (HT-29 [11]): 21.7 µM
- IC50 (MCF7 [13]): 33.9 µM
- IC50 (HeLa [19]): 25.7 µM

SMILES: NS(=O)(=O)c1ccc(Nc2ncc(/N=C/c3ccc(C(F)(F)F)cc3)c(NC3CCCC3)n2)cc1
- IC50 (HCT-116 [6]): > 100 µM
- IC50 (HT-29 [11]): > 100 µM
- IC50 (MCF7 [13]): > 100 µM
- IC50 (HeLa [19]): 21.9 µM

The remaining lines, values ahead:

- IC50 (HCT-116 [6]): > 100 µM
- IC50 (HT-29 [11]): 80.7 µM
- IC50 (MCF7 [13]): > 100 µM
- IC50 (HeLa [19]): > 100 µM
SMILES: CN1CCN(c2ccc(Nc3ncc(/N=C/c4ccc(C(F)(F)F)cc4)c(NC4CCCC4)n3)cc2)CC1

- IC50 (HCT-116 [6]): > 100 µM
- IC50 (HT-29 [11]): > 100 µM
- IC50 (MCF7 [13]): 91 µM
- IC50 (HeLa [19]): 77.1 µM
SMILES: CC(C)Nc1nc(Nc2ccc(N3CCN(C)CC3)cc2)ncc1/N=C/c1cccs1

- IC50 (HCT-116 [6]): 23.7 µM
- IC50 (HT-29 [11]): 19.6 µM
- IC50 (MCF7 [13]): 15.2 µM
- IC50 (HeLa [19]): 27.7 µM
SMILES: CCOC(=O)/C=N/c1cnc(Nc2ccc(N3CCOCC3)cc2)nc1NC(C)C

- IC50 (HCT-116 [6]): > 100 µM
- IC50 (HT-29 [11]): > 100 µM
- IC50 (MCF7 [13]): > 100 µM
- IC50 (HeLa [19]): > 100 µM
SMILES: CC(C)Nc1nc(Nc2ccc(N3CCOCC3)cc2)ncc1/N=C/c1ccc(C(F)(F)F)cc1

Source: ChEMBL document CHEMBL4811309, “Design, synthesis and antiproliferative activity of novel 2,4-diamino-5-methyleneaminopyrimidine derivatives as potential anticancer agents” (Bioorg Med Chem Lett, 2021)
